For this experiment, the target named is human SCN9A (Nav 1.7) (Homo sapiens, UniProt Q15858). Nature of the experiment: Measurement of Na ion current (Nav 1.7) by automated patch clamp assay in cells stably-expressing human SCN9A. The format is cell-based. The settings on record: read-out: Inhibitory rate (%) of Na ion current; for inhibition at 100 µM: compound concentration 100 μmol/L (footnoted examples). As for the experimental part: Measurement of Na Ion Current in Voltage-Dependent Na Channel Gene Expressed Cell Nav 1.7 current was measured by automated patch clamp assay using cells stably-expressing human SCN9A. Cells Stably-expressing Human SCN9A Tetracycline-induced cells stably-expressing SCN9A were obtained from ChanTest Corporation. […] Next day, the Na ion current was measured by automated patch clamp assay. Electrophysiologic Measurement of Na Ion Current The Na ion current was measured by automated patch clamp assay using the following extracellular solution and intracellular solution. […] The control of the stimulating pulse and the data acquisition were carried out using EPC10 amplifier and Patch Master Software (HEKA). Data were sampled at 10 kHz, and low-pass filtered at 3 kHz. All the measurements were carried out at room temperature. […] The inhibitory rate of the Na ion current by the test compounds was calculated according to the following calculating formula with the peak current value generated by the depolarizing pulse. […] The inhibitory rate of Na ion current by each Example Compound was evaluated.
For orientation: In patch-clamp work, channel activity is measured electrically.

Setting [1] is: compound concentration 10 μmol/L, holding potential inactivating 50% Nav 1.7 channel (around −60 mV).
Where [2] appears, read: holding potential inactivating 50% Nav 1.7 channel (around −60 mV).

Read-outs that look alike come from different tables or passages of the source.

Chain of human SCN9A (Nav 1.7) (Q15858 whole entry): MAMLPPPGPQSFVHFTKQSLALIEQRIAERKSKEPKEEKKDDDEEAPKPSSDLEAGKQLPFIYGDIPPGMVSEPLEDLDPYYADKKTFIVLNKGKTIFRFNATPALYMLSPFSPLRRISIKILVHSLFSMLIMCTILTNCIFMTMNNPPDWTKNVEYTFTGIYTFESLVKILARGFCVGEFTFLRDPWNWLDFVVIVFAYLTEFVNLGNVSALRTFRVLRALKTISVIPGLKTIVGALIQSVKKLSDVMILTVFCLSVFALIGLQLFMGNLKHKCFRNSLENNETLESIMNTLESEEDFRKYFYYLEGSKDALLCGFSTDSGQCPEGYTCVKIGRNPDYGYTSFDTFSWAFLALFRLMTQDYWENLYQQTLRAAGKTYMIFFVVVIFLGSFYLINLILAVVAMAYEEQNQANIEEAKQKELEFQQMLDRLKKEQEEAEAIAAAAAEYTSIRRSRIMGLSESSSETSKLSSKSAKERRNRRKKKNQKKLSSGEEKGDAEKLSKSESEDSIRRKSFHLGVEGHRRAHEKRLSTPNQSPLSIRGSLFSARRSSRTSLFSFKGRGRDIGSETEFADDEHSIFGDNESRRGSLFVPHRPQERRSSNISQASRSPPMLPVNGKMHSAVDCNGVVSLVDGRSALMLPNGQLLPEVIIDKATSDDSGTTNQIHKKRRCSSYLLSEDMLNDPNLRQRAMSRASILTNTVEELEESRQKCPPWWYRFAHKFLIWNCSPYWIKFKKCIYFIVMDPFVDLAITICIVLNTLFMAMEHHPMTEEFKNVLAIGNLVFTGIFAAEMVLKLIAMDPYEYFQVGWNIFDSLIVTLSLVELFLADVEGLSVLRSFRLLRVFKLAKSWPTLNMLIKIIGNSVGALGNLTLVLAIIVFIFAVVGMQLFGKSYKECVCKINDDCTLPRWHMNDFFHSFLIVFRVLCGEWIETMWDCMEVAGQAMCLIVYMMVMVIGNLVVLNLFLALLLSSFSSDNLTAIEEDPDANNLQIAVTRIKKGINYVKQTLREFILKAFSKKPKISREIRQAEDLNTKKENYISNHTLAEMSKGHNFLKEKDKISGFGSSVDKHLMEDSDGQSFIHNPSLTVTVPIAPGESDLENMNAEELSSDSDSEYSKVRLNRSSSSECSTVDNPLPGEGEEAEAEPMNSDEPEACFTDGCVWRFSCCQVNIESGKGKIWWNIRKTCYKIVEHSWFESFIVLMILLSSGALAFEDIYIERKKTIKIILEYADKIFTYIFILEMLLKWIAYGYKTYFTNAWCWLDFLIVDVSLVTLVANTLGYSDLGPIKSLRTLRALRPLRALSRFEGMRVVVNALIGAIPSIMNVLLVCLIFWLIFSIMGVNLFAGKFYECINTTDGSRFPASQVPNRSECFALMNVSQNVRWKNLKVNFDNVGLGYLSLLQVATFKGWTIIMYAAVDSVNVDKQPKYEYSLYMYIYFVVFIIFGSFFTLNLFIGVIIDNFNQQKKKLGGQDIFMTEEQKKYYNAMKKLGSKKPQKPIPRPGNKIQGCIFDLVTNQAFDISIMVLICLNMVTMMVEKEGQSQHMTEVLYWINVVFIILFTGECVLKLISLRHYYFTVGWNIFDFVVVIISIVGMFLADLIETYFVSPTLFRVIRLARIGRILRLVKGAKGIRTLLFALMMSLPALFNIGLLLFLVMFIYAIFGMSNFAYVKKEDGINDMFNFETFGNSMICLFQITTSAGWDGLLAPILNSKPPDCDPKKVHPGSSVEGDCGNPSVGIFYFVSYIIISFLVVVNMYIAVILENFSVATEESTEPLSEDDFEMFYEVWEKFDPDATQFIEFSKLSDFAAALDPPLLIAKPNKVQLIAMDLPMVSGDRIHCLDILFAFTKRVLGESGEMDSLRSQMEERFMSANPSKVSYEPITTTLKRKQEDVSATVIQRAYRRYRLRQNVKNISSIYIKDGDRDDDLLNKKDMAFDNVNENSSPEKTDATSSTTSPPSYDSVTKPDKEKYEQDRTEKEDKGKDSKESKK

Consider `Fc1ccc(Oc2ccc3ncn(CC4CCCO4)c3c2)cc1` (stereo not drawn) [Example 2, 6-(4-fluorophenoxy)-1-(tetrahydrofuran-2-ylmethyl)-1H-benzimidazole], for which, under setting [1], the inhibition at 10 µM is 85%. Take `CC(C)OCCn1cnc2ccc(Oc3ccc(F)cc3)cc21` [Example 3, 6-(4-fluorophenoxy)-1-[2-(propan-2-yloxy)ethyl]-1H-benzimidazole]: the inhibition at 10 µM under setting [1] is 65%.

Turning to `Fc1ccc(Oc2ccc3ncn(CCOC4CCCC4)c3c2)cc1` [Example 4, 1-[2-(cyclopentyloxy)ethyl]-6-(4-fluorophenoxy)-1H-benzimidazole], the inhibition at 10 µM under setting [1] stood at 52%.

With `CC(C)(O)Cn1cnc2ccc(-c3ccc(F)cc3)cc21` [Example 5, 1-[6-(4-fluorophenyl)-1H-benzimidazol-1-yl]-2-methylpropan-2-ol], the inhibition at 10 µM under setting [1] stood at 39%.

Regarding `Fc1ccc(-c2ccc3ncn(CC4CCCO4)c3c2)cc1` (stereo not drawn) [Example 6], under setting [1], the inhibition at 10 µM worked out at 41%. Consider `FC(F)(F)c1ccc(-c2ccc3ncn(CC4CCCO4)c3c2)cc1` (stereo not drawn) [Example 7, 1-(tetrahydrofuran-2-ylmethyl)-6-[4-(trifluoromethyl)phenyl]-1H-benzimidazole], for which the inhibition at 10 µM under setting [1] was 67%. `FC(F)(F)c1ccc(-c2ccc3ncn(CC4CCCO4)c3c2)nc1` (stereo not drawn) [Example 8]: the inhibition at 10 µM under setting [1] is 32%. Still for that read-out and setting: under `CC(C)(O)Cn1cnc2ccc(-c3ccc(C(F)(F)F)cc3)cc21` [Example 9, 2-methyl-1-{6-[4-(trifluoromethyl)phenyl]-1H-benzimidazol-1-yl}propan-2-ol] stands 77%. Regarding `FC(F)(F)c1ccc(-c2ccc3ncn(CCOC4CCCC4)c3c2)cc1` [Example 10, 1-[2-(cyclopentyloxy)ethyl]-6-[4-(trifluoromethyl)phenyl]-1H-benzimidazole], the inhibition at 10 µM under setting [1] turned out to be 52%. On to `CC(C)(O)Cn1cnc2ccc(-c3ccc(C(F)(F)F)cn3)cc21` [Example 11, 2-methyl-1-{6-[5-(trifluoromethyl)pyridin-2-yl]-1H-benzimidazol-1-yl}propan-2-ol], for which the inhibition at 10 µM under setting [1] came out at 75%. On the same count and under the same terms, under `FC(F)(F)c1ccc(-c2ccc3ncn(CCOC4CCCC4)c3c2)nc1` [Example 12, 1-[2-(cyclopentyloxy)ethyl]-6-[5-(trifluoromethyl)pyridin-2-yl]-1H-benzimidazole] stands 58%; under `CC(C)(O)Cn1cnc2ccc(Oc3ccccc3)cc21` [Example 13, 2-methyl-1-(6-phenoxy-1H-benzimidazol-1-yl)propan-2-ol], 25%.

In the case of `Cc1ccc(Oc2ccc3ncn(CC(C)(C)O)c3c2)cc1` [Example 14, 2-methyl-1-[6-(4-methylphenoxy)-1H-benzimidazol-1-yl]propan-2-ol], the inhibition at 10 µM came to 68%. Turning to `CC(C)(O)Cn1cnc2ccc(Oc3ccc(C(F)(F)F)cc3)cc21` [Example 15, 2-methyl-1-{6-[4-(trifluoromethyl)phenoxy]-1H-benzimidazol-1-yl}propan-2-ol], under setting [1], the inhibition at 10 µM was 57%. In the case of `CC(C)(O)Cn1cnc2ccc(Oc3ccc(OC(F)(F)F)cc3)cc21` [Example 22, 2-methyl-1-{6-[4-(trifluoromethoxy)phenoxy]-1H-benzimidazol-1-yl}propan-2-ol], under setting [1], the inhibition at 10 µM was 73%. For `Cc1ccc(Oc2ccc3ncn(CC(C)(C)O)c3c2)cn1` [Example 24, 2-methyl-1-{6-[(6-methylpyridin-3-yl)oxy]-1H-benzimidazol-1-yl}propan-2-ol], under setting [1], the inhibition at 10 µM was determined as 56%. Consider `CC(C)(O)Cn1cnc2ccc(Oc3ccc(C(F)(F)F)nc3)cc21` [Example 25, 2-methyl-1-(6-{[6-(trifluoromethyl)pyridin-3-yl]oxy}-1H-benzimidazol-1-yl)propan-2-ol], for which, under setting [1], the inhibition at 10 µM came to 72%.

`CC(C)(O)Cn1cnc2cc(Oc3cccc(C(F)(F)F)n3)ccc21` [Example 43, 2-methyl-1-(5-{[6-(trifluoromethyl)pyridin-2-yl]oxy}-1H-benzimidazol-1-yl)propan-2-ol]: the inhibition at 10 µM under setting [1] worked out at 20%.

For the molecule `CC(C)(O)Cn1cnc2cc(Oc3cnc(C(F)(F)F)cn3)ccc21` [Example 51, 2-methyl-1-(5-{[5-(trifluoromethyl)pyrazin-2-yl]oxy}-1H-benzimidazol-1-yl)propan-2-ol], under setting [1], the inhibition at 10 µM was determined as 44%. Take `CC(C)(O)Cn1cnc2cc(Oc3ncc(C(F)(F)F)cn3)ccc21` [Example 52, 2-methyl-1-(5-{[5-(trifluoromethyl)pyrimidin-2-yl]oxy}-1H-benzimidazol-1-yl)propan-2-ol]: the inhibition at 10 µM under setting [1] was 46%. On to `CC(C)(O)Cn1cnc2cc(Oc3ncc(C(F)(F)F)cc3F)ccc21` [Example 53, 1-(5-{[3-fluoro-5-(trifluoromethyl)pyridin-2-yl]oxy}-1H-benzimidazol-1-yl)-2-methylpropan-2-ol], for which, under setting [1], the inhibition at 10 µM was 69%. On to `CC(C)(O)Cn1cnc2cc(Oc3ncc(Cl)cc3F)ccc21` [Example 54, 1-{5-[(5-chloro-3-fluoropyridin-2-yl)oxy]-1H-benzimidazol-1-yl}-2-methylpropan-2-ol], for which the inhibition at 10 µM under setting [1] worked out at 62%.

With `OC1(Cn2cnc3ccc(Oc4ccc(C(F)(F)F)cn4)cc32)CCOCC1` [Example 55], under setting [1], the inhibition at 10 µM turned out to be 37%. Turning to `OC1(Cn2cnc3ccc(Oc4ccc(C(F)(F)F)cn4)cc32)COC1` [Example 56, 3-[(6-{[5-(trifluoromethyl)pyridin-2-yl]oxy}-1H-benzimidazol-1-yl)methyl]oxetan-3-ol], under setting [1], the inhibition at 10 µM was determined as 45%. As for `OC1(Cn2cnc3ccc(Oc4ccc(C(F)(F)F)cn4)cc32)CC1` [Example 57], the inhibition at 10 µM under setting [1] is 47%. Take `OC1(Cn2cnc3ccc(Oc4ccc(C(F)(F)F)cn4)cc32)CCC1` [Example 58, 1-[(6-{[5-(trifluoromethyl)pyridin-2-yl]oxy}-1H-benzimidazol-1-yl)methyl]cyclobutanol]: the inhibition at 10 µM under setting [1] stood at 48%.

`CC(C)(O)Cn1cnc2ccc(Oc3ccc(CC(F)(F)F)cn3)cc21` [Example 60, 2-methyl-1-(6-{[5-(2,2,2-trifluoroethyl)pyridin-2-yl]oxy}-1H-benzimidazol-1-yl)propan-2-ol]: the inhibition at 10 µM under setting [1] was 52%. For `OC1(Cn2cnc3ccc(Oc4ccc(F)cc4)cc32)COC1` [Example 90], under setting [1], the inhibition at 10 µM came out at 15%. `OC1(Cn2cnc3ccc(Oc4ccc(Cl)cc4)cc32)COC1` [Example 91]: under setting [1], the inhibition at 10 µM came to 24%.

Turning to `Cc1ccc(Oc2ccc3ncn(CC4(O)COC4)c3c2)cc1` [Example 92], under setting [1], the inhibition at 10 µM was 16%. With `OC1(Cn2cnc3ccc(Oc4ccc(C(F)(F)F)cc4)cc32)COC1` [Example 93, 3-({6-[4-(trifluoromethyl)phenoxy]-1H-benzimidazol-1-yl}methyl)oxetan-3-ol], under setting [1], the inhibition at 10 µM turned out to be 42%. `OC1(Cn2cnc3ccc(Oc4cccc(F)c4)cc32)COC1` [Example 95]: the inhibition at 100 µM under setting [2] came out at 66%.

As for `OC1(Cn2cnc3ccc(Oc4ccc(C(F)(F)F)nc4)cc32)COC1` [Example 96], the inhibition at 100 µM under setting [2] is 32%.

In the case of `CC(C)(O)CCn1cnc2ccc(Oc3ccc(OC(F)(F)F)cc3)cc21` [Example 97], the inhibition at 10 µM under setting [1] stood at 83%.

For the molecule `CC(C)(O)CCn1cnc2ccc(Oc3cccc(F)c3)cc21` [Example 98], under setting [1], the inhibition at 10 µM is 25%. Take `Cc1ccc(Oc2ccc3ncn(CCC(C)(C)O)c3c2)cc1` [Example 99]: the inhibition at 10 µM under setting [1] is 12%.

Consider `CC(C)(O)CCn1cnc2ccc(Oc3ccc(F)cc3)cc21` [Example 100], for which the inhibition at 10 µM under setting [1] turned out to be 10%. For the molecule `CC(C)(O)CCn1cnc2ccc(Oc3ccc(C(F)(F)F)cc3)cc21` [Example 102], the inhibition at 10 µM under setting [1] was determined as 59%. As to `CC(C)(O)CCn1cnc2ccc(Oc3ccc(C(F)(F)F)nc3)cc21` [Example 103], under setting [1], the inhibition at 10 µM is 10%.

Take `CC(C)(O)Cn1cnc2ccc(Oc3ccc(CC(F)(F)F)cc3)cc21` [Example 104]: the inhibition at 10 µM under setting [1] stood at 57%.

Consider `OC1(Cn2cnc3ccc(Oc4ccc(CC(F)(F)F)cc4)cc32)COC1` [Example 105], for which, under setting [1], the inhibition at 10 µM is 38%. Turning to `OC1(Cn2cnc3ccc(Oc4ccc(Cl)cc4Cl)cc32)COC1` [Example 106], the inhibition at 10 µM under setting [1] stood at 50%. Consider `OC1(Cn2cnc3ccc(Oc4ccc(Cl)c(Cl)c4)cc32)COC1` [Example 107], for which the inhibition at 10 µM under setting [1] was 51%.

For `OC1(Cn2cnc3ccc(Oc4ccc(Cl)cc4F)cc32)COC1` [Example 109], under setting [1], the inhibition at 10 µM was found to be 30%. Regarding `OC1(Cn2cnc3ccc(Oc4ccc(F)cc4Cl)cc32)COC1` [Example 110, 3-{[6-(2-chloro-4-fluorophenoxy)-1H-benzimidazol-1-yl]methyl}oxetan-3-ol], the inhibition at 10 µM under setting [1] turned out to be 58%. As for `OC1(Cn2cnc3ccc(Oc4cc(Cl)cc(Cl)c4)cc32)COC1` [Example 111], the inhibition at 10 µM under setting [1] stood at 52%.

Turning to `OC1(Cn2cnc3ccc(Oc4cc(Cl)ccc4Cl)cc32)COC1` [Example 112], the inhibition at 10 µM under setting [1] was determined as 39%. Regarding `C[C@]1(O)C[C@@H](n2cnc3ccc(Oc4ccc(C(F)(F)F)cc4)cc32)C1` [Example 113], the inhibition at 10 µM under setting [1] was found to be 68%.

Turning to `OC1(Cn2cnc3ccc(Oc4ccc5scnc5c4)cc32)COC1` [Example 114], under setting [1], the inhibition at 10 µM is 26%. In the case of `OC1(Cn2cnc3ccc(Oc4ccc5ncccc5c4)cc32)COC1` [Example 115], the inhibition at 10 µM under setting [1] came out at 31%. For the molecule `CC(C)(CO)n1cnc2ccc(Oc3ccc(C(F)(F)F)cn3)cc21` [Example 116], the inhibition at 10 µM under setting [1] was found to be 33%.

These data come from patent publication US10407395B2, “Benzimidazole compound and medical use thereof” (Sumitomo Dainippon Pharma Co., Ltd., priority 2015, dated 2019).
